In ChEMBL document CHEMBL3885881, “DrugMatrix”:

Organism: Rattus norvegicus
Experiment: DrugMatrix - Regimen: Daily Repeat
Format: toxicity, organism-based, Sprague-Dawley
Set-up: regimen Daily Repeat, gender Male, age 6-8 weeks
Conditions: in vivo, po, route oral GAVAGE, vehicle .5 % CMC; for BASOPHIL / EOSINOPHIL / ERYTHROCYTE COUNT / HEMATOCRIT / HEMOGLOBIN / LEUKOCYTE COUNT / LYMPHOCYTE / MEAN CORPUSCULAR HEMOGLOBIN / MEAN CORPUSCULAR HEMOGLOBIN CONCENTRATION / MEAN CORPUSCULAR VOLUME / MONOCYTE / NEUTROPHIL / PLATELET COUNT: tissue Blood; for ALANINE AMINOTRANSFERASE / ALBUMIN / ALKALINE PHOSPHATASE / ASPARTATE AMINOTRANSFERASE / BLOOD UREA NITROGEN / CHLORIDE / CHOLESTEROL / CREATINE PHOSPHOKINASE / CREATININE / GLUCOSE / PHOSPHORUS / POTASSIUM / SODIUM / TOTAL BILIRUBIN / TOTAL PROTEIN: tissue Plasma
[1] = 0 mg/kg, 72 h, dose level Control, time 3 day
[2] = 0 mg/kg, 120 h, dose level Control, time 5 day
[3] = 45 mg/kg, 72 h, dose level Low, time 3 day
[4] = 45 mg/kg, 120 h, dose level Low, time 5 day

Nc1ccc(C(=O)O)c(O)c1 [AMINOSALICYLIC ACID] was tested. Which BASOPHIL [1] did it give?
The BASOPHIL was 0%.

What about the EOSINOPHIL [1] of the same molecule?
Its EOSINOPHIL is 0%.

And the “ERYTHROCYTE COUNT” value [1]?
Its value is 6.34 x10E6/uL.

And the HEMATOCRIT [1]?
Its HEMATOCRIT is 37.62%.

And the HEMOGLOBIN [1]?
The HEMOGLOBIN was 14.82 G/DL.

And the “LEUKOCYTE COUNT” value [1]?
The value was 11.18 x10E3/uL.

And the LYMPHOCYTE [1]?
The LYMPHOCYTE was 87.5%.

What about the “MEAN CORPUSCULAR HEMOGLOBIN” value [1] of the same molecule?
Its value is 23.48 pg.

What about the “MEAN CORPUSCULAR HEMOGLOBIN CONCENTRATION” value [1] of the same molecule?
Its value is 39.5 G/DL.

What about the “MEAN CORPUSCULAR VOLUME” value [1] of the same molecule?
The value was 59.45 fL.

What about the MONOCYTE [1] of the same molecule?
Its MONOCYTE is 1.67%.

And the NEUTROPHIL [1]?
Its NEUTROPHIL is 10.83%.

And the “PLATELET COUNT” value [1]?
Its value is 1074.83 x10E3/uL.

What about the “ALANINE AMINOTRANSFERASE” value [1] of the same molecule?
Its value is 36.5 u/L.

What about the ALBUMIN [1] of the same molecule?
Its ALBUMIN is 3.9 G/DL.

What about the “ALKALINE PHOSPHATASE” value [1] of the same molecule?
Its value is 370.17 u/L.

And the “ASPARTATE AMINOTRANSFERASE” value [1]?
The value was 63.17 u/L.

What about the “BLOOD UREA NITROGEN” value [1] of the same molecule?
Its value is 16.83 mg/dL.

What about the CHLORIDE [1] of the same molecule?
Its CHLORIDE is 99.33 MEQ/L.

What about the CHOLESTEROL [1] of the same molecule?
The CHOLESTEROL was 64.33 mg/dL.

And the “CREATINE PHOSPHOKINASE” value [1]?
Its value is 127 u/L.

What about the CREATININE [1] of the same molecule?
Its CREATININE is 0.55 mg/dL.

What about the GLUCOSE [1] of the same molecule?
The GLUCOSE was 173.5 mg/dL.

What about the PHOSPHORUS [1] of the same molecule?
The PHOSPHORUS was 10.08 mg/dL.

And the POTASSIUM [1]?
The POTASSIUM was 6.23 MEQ/L.

What about the SODIUM [1] of the same molecule?
The SODIUM was 143.5 MEQ/L.

What about the “TOTAL BILIRUBIN” value [1] of the same molecule?
The value was 0.52 mg/dL.

And the “TOTAL PROTEIN” value [1]?
The value was 6.35 G/DL.

What about the BASOPHIL [2] of the same molecule?
The BASOPHIL was 0%.

What about the EOSINOPHIL [2] of the same molecule?
Its EOSINOPHIL is 0.17%.

And the “ERYTHROCYTE COUNT” value [2]?
The value was 6.12 x10E6/uL.

What about the HEMATOCRIT [2] of the same molecule?
The HEMATOCRIT was 37.08%.

And the HEMOGLOBIN [2]?
Its HEMOGLOBIN is 14.82 G/DL.

What about the “LEUKOCYTE COUNT” value [2] of the same molecule?
Its value is 11.87 x10E3/uL.

And the LYMPHOCYTE [2]?
The LYMPHOCYTE was 83.33%.

And the “MEAN CORPUSCULAR HEMOGLOBIN” value [2]?
The value was 24.25 pg.

What about the “MEAN CORPUSCULAR HEMOGLOBIN CONCENTRATION” value [2] of the same molecule?
The value was 39.97 G/DL.

What about the “MEAN CORPUSCULAR VOLUME” value [2] of the same molecule?
Its value is 60.65 fL.

And the MONOCYTE [2]?
Its MONOCYTE is 1.5%.

And the NEUTROPHIL [2]?
The NEUTROPHIL was 15%.

And the “PLATELET COUNT” value [2]?
The value was 1042.83 x10E3/uL.

What about the “ALANINE AMINOTRANSFERASE” value [2] of the same molecule?
Its value is 46 u/L.

And the ALBUMIN [2]?
The ALBUMIN was 3.82 G/DL.

What about the “ALKALINE PHOSPHATASE” value [2] of the same molecule?
The value was 369.5 u/L.

What about the “ASPARTATE AMINOTRANSFERASE” value [2] of the same molecule?
Its value is 65 u/L.

And the “BLOOD UREA NITROGEN” value [2]?
Its value is 16.33 mg/dL.

What about the CHLORIDE [2] of the same molecule?
The CHLORIDE was 100.67 MEQ/L.

And the CHOLESTEROL [2]?
The CHOLESTEROL was 57.17 mg/dL.

And the “CREATINE PHOSPHOKINASE” value [2]?
Its value is 130 u/L.

And the CREATININE [2]?
The CREATININE was 0.53 mg/dL.

What about the GLUCOSE [2] of the same molecule?
The GLUCOSE was 163.33 mg/dL.

And the PHOSPHORUS [2]?
Its PHOSPHORUS is 9.53 mg/dL.

What about the POTASSIUM [2] of the same molecule?
Its POTASSIUM is 6.27 MEQ/L.

What about the SODIUM [2] of the same molecule?
Its SODIUM is 144.83 MEQ/L.

What about the “TOTAL BILIRUBIN” value [2] of the same molecule?
The value was 0.55 mg/dL.

And the “TOTAL PROTEIN” value [2]?
Its value is 6.32 G/DL.

What about the BASOPHIL [3] of the same molecule?
The BASOPHIL was 0%.

And the EOSINOPHIL [3]?
Its EOSINOPHIL is 0%.

And the “ERYTHROCYTE COUNT” value [3]?
Its value is 6.2 x10E6/uL.

And the HEMATOCRIT [3]?
Its HEMATOCRIT is 36.9%.

What about the HEMOGLOBIN [3] of the same molecule?
Its HEMOGLOBIN is 14.43 G/DL.

And the “LEUKOCYTE COUNT” value [3]?
Its value is 13.37 x10E3/uL.

What about the LYMPHOCYTE [3] of the same molecule?
Its LYMPHOCYTE is 88%.

And the “MEAN CORPUSCULAR HEMOGLOBIN” value [3]?
Its value is 23.3 pg.

And the “MEAN CORPUSCULAR HEMOGLOBIN CONCENTRATION” value [3]?
Its value is 39.13 G/DL.

What about the “MEAN CORPUSCULAR VOLUME” value [3] of the same molecule?
Its value is 59.6 fL.

And the MONOCYTE [3]?
The MONOCYTE was 0.33%.

And the NEUTROPHIL [3]?
The NEUTROPHIL was 11.67%.

What about the “PLATELET COUNT” value [3] of the same molecule?
Its value is 1203.67 x10E3/uL.

And the “ALANINE AMINOTRANSFERASE” value [3]?
Its value is 39.33 u/L.

And the ALBUMIN [3]?
Its ALBUMIN is 3.83 G/DL.

What about the “ALKALINE PHOSPHATASE” value [3] of the same molecule?
Its value is 358.33 u/L.

And the “ASPARTATE AMINOTRANSFERASE” value [3]?
The value was 67.33 u/L.

What about the “BLOOD UREA NITROGEN” value [3] of the same molecule?
Its value is 15 mg/dL.

What about the CHLORIDE [3] of the same molecule?
Its CHLORIDE is 99.33 MEQ/L.

What about the CHOLESTEROL [3] of the same molecule?
The CHOLESTEROL was 71.33 mg/dL.

What about the “CREATINE PHOSPHOKINASE” value [3] of the same molecule?
The value was 117 u/L.

What about the CREATININE [3] of the same molecule?
The CREATININE was 0.53 mg/dL.

And the GLUCOSE [3]?
Its GLUCOSE is 180 mg/dL.

And the PHOSPHORUS [3]?
The PHOSPHORUS was 10.37 mg/dL.

And the POTASSIUM [3]?
Its POTASSIUM is 6.03 MEQ/L.

And the SODIUM [3]?
The SODIUM was 143 MEQ/L.

And the “TOTAL BILIRUBIN” value [3]?
Its value is 0.47 mg/dL.

What about the “TOTAL PROTEIN” value [3] of the same molecule?
The value was 6.27 G/DL.

And the BASOPHIL [4]?
Its BASOPHIL is 0%.

And the EOSINOPHIL [4]?
Its EOSINOPHIL is 0%.

What about the “ERYTHROCYTE COUNT” value [4] of the same molecule?
The value was 5.82 x10E6/uL.

And the HEMATOCRIT [4]?
The HEMATOCRIT was 35.1%.

And the HEMOGLOBIN [4]?
Its HEMOGLOBIN is 14.37 G/DL.

And the “LEUKOCYTE COUNT” value [4]?
Its value is 14.2 x10E3/uL.

What about the LYMPHOCYTE [4] of the same molecule?
The LYMPHOCYTE was 88%.

What about the “MEAN CORPUSCULAR HEMOGLOBIN” value [4] of the same molecule?
Its value is 24.67 pg.

And the “MEAN CORPUSCULAR HEMOGLOBIN CONCENTRATION” value [4]?
The value was 40.97 G/DL.

And the “MEAN CORPUSCULAR VOLUME” value [4]?
The value was 60.3 fL.

What about the MONOCYTE [4] of the same molecule?
Its MONOCYTE is 2%.

And the NEUTROPHIL [4]?
The NEUTROPHIL was 10%.

What about the “PLATELET COUNT” value [4] of the same molecule?
The value was 1018.67 x10E3/uL.

And the “ALANINE AMINOTRANSFERASE” value [4]?
The value was 34.33 u/L.

And the ALBUMIN [4]?
The ALBUMIN was 3.6 G/DL.

What about the “ALKALINE PHOSPHATASE” value [4] of the same molecule?
The value was 348.33 u/L.

And the “ASPARTATE AMINOTRANSFERASE” value [4]?
The value was 58 u/L.

And the “BLOOD UREA NITROGEN” value [4]?
The value was 15 mg/dL.

And the CHLORIDE [4]?
The CHLORIDE was 101 MEQ/L.

What about the CHOLESTEROL [4] of the same molecule?
The CHOLESTEROL was 62.67 mg/dL.

And the “CREATINE PHOSPHOKINASE” value [4]?
The value was 122.67 u/L.

What about the CREATININE [4] of the same molecule?
Its CREATININE is 0.47 mg/dL.

What about the GLUCOSE [4] of the same molecule?
Its GLUCOSE is 155.33 mg/dL.

And the PHOSPHORUS [4]?
The PHOSPHORUS was 10 mg/dL.

And the POTASSIUM [4]?
The POTASSIUM was 6.3 MEQ/L.

What about the SODIUM [4] of the same molecule?
Its SODIUM is 144.67 MEQ/L.

And the “TOTAL BILIRUBIN” value [4]?
The value was 0.37 mg/dL.

And the “TOTAL PROTEIN” value [4]?
Its value is 5.8 G/DL.
